Measured values: patent US4794110A, “5-Aryl-11-substituted-5H,11H-pyrrolo[2,1-c][1,4]benzoxazepined as analgesic and hypotensive agents” (Hoechst-Roussel Pharmaceuticals, Inc., priority 1987, dated 1988)
“And” between values parts separate entries of the source, which are not always exact repeats. Identical values can stand only once.

Experiments:
[1] = system: spontaneous hypertensive rat; test: Antihypertensive activity in the spontaneous hypertensive rat by the indirect tail cuff method; type: in vivo; details: mean arterial blood pressure, third day
Experimental: In this procedure a group of five animals are treated orally for three days with the test compound in relation to a control group of the same number. The drop in blood pressure is measured on the third day following administration.

[2] = system: 2-phenyl-1,4-benzoquinone-induced writhing; test: 2-phenyl-1,4-benzoquinone-induced writhing test in mice (analgesic activity, phenylquinone writhing); type: in vivo
Source text: The compounds of formula I of the present invention are useful as analgesic agents due to their ability to alleviate pain in mammals. […] Exptl. Biol. Med., 95, 729 (1957)].

C[C@H](CS)C(=O)N1CCC[C@H]1C(=O)O [captopril, reference compound]
Decrease in Blood Pressure ([1]; 10 mg/kg p.o., reference compound): 33 mmHg

CCC(=O)O[C@](Cc1ccccc1)(c1ccccc1)[C@H](C)CN(C)C [propoxyphene, reference compound]
Analgesic PQW, % Inhibition of Writhing ([2]; 3.9 mg/kg s.c., reference compound): 50%

O=C(O)C(=O)O.c1ccc(CN2CCC(C3Oc4ccccc4C(c4ccccc4)n4cccc43)CC2)cc1 (centres unmarked) [11-(1-Benzyl-4-piperidinyl)-5-phenyl-5H,11H-pyrrolo[2,1-c][1,4]benzoxazepine oxalate]
Decrease in Blood Pressure ([1]; 3 mg/kg, p.o.): 44 mmHg
Analgesic PQW, % Inhibition of Writhing ([2]; 20 mg/kg, s.c.): 34%

CN(C)CC1Oc2ccccc2C(c2ccccc2)n2cccc21.Cl (single isomer, unassigned) [11-dimethylaminomethyl-5-phenyl-5H,11H--pyrrolo[2,1-c][1,4]b] [11-Dimethylaminomethyl-5-phenyl-5H,11H-pyrrolo[2,1-c][1,4]benzoxazepine hydrochloride]
Analgesic PQW, % Inhibition of Writhing ([2]; 20 mg/kg, s.c., hydrochloride): 24% and 35%
